Numbering of substitutions follows the chain as printed. Activity calls are given as the source filed them. The rule behind the calls is not given here.
Legend:
[1] = molecular target: T1, Muscarinic acetylcholine receptor M1 (Mus musculus, UniProt P12657); assay: biochemical
T1 sequence (P12657 whole entry): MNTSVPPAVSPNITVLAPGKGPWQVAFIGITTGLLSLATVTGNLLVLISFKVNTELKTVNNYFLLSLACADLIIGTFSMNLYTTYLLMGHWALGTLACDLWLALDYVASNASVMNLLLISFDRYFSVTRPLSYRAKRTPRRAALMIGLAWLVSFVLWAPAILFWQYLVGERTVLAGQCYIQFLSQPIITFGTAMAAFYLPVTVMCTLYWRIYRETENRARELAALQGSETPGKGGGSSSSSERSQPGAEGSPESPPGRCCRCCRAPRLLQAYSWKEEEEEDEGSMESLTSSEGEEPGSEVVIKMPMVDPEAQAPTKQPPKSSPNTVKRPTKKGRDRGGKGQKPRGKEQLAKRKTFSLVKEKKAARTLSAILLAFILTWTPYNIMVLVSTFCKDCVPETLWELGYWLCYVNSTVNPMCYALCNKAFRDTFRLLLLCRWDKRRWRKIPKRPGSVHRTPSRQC
Description: Inhibition of [3H]pirenzepine binding to mouse muscarinic acetylcholine receptor M1 from cerebral cortex

[2] = molecular target: Cholinesterase (Homo sapiens, UniProt P06276)
Cholinesterase, sequence (P06276 whole entry): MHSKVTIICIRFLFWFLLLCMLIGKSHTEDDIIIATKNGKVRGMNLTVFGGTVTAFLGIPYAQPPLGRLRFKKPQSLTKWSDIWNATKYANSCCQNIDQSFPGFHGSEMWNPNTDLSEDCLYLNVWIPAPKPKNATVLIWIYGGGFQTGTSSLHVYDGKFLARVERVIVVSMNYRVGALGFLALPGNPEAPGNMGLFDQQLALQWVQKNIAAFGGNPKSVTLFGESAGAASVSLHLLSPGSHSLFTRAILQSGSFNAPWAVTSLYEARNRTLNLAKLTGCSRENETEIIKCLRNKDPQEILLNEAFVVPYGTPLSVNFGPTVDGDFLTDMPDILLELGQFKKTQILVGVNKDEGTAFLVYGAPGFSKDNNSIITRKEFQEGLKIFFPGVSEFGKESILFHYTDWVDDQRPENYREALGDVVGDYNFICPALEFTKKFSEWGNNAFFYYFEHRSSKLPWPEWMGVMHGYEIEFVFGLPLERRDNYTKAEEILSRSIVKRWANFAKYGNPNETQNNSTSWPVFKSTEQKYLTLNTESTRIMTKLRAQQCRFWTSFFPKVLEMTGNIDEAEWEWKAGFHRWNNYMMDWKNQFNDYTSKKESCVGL
Description: In vitro inhibition of human butryl cholinesterase.

[3] = species on record: Rattus norvegicus; assay: Ratio of IC50 (muscarinic acetylcholine receptor M2) to IC50 (muscarinic acetylcholine receptor M1)
[4] = molecular target: T2, Muscarinic acetylcholine receptor M2 (Rattus norvegicus, UniProt P10980)
T2 sequence (P10980 whole entry): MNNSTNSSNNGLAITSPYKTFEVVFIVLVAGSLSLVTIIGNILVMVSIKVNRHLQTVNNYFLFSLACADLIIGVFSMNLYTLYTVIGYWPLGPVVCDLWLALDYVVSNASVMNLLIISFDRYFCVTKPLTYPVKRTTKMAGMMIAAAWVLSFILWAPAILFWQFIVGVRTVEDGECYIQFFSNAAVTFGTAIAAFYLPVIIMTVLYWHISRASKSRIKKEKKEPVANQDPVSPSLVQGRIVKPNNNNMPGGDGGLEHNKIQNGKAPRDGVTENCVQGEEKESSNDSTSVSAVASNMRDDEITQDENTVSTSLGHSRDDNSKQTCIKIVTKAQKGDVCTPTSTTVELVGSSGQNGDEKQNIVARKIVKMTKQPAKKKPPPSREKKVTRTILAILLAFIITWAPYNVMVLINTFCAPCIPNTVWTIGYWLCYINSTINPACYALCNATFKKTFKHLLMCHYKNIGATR
Description: Inhibition of [3H]N-methylscopolamine to rat muscarinic acetylcholine receptor M2 from heart tissue

[5] = molecular target: T3, Acetylcholinesterase (Homo sapiens, UniProt P22303)
T3 sequence (P22303 whole entry): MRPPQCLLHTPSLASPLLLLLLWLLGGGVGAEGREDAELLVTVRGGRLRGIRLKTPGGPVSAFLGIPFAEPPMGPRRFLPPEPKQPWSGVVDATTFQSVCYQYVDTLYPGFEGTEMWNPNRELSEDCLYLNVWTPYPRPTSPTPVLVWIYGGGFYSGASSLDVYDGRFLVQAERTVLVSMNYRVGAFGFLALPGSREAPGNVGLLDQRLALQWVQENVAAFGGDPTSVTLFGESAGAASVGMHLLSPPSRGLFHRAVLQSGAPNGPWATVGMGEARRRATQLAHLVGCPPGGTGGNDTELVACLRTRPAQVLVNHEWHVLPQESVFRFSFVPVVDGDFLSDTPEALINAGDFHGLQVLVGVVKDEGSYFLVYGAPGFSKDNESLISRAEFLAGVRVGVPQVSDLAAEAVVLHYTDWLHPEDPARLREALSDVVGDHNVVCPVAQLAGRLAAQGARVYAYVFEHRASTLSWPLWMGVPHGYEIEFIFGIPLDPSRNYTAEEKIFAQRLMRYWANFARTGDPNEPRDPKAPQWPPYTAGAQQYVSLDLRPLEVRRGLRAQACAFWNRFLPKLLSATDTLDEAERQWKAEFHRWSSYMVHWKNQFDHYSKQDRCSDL
Description: In vitro inhibition of human acetylcholinesterase.

[6] = molecular target: Cholinesterases; ACHE & BCHE (Homo sapiens) (UniProt P06276+P22303); assay: Ratio of IC50(BChE-I) to IC50(AChE-I); assay type: protein assay
Cholinesterases; ACHE & BCHE (Homo sapiens), sequence (P06276 whole entry, looked up): as the sequence (P06276 whole entry) above
Cholinesterases; ACHE & BCHE (Homo sapiens), sequence (P22303 whole entry, looked up): as the sequence (P22303 whole entry) above

[7] = species on record: Rattus norvegicus
[8] = molecular target: T4, Muscarinic acetylcholine receptor M2 (Mus musculus, UniProt Q9ERZ4); assay: Ability to displace [3H]methylscopolamine ([3H]NMS) from mouse cerebral cortex; assay type: tissue-based
T4 sequence (Q9ERZ4 whole entry): T2 sequence (P10980 whole entry) with V270G, R316K, K321R, A331T, V336A

[9] = molecular target: T4, Muscarinic acetylcholine receptor M2; assay: Ability to displace [3H]oxotremorine ([3H]OXO-M) from mouse cerebral cortex; assay type: tissue-based
[10] = tested on: Mus musculus; assay: Effect on brain acetylcholine concentration in mice after intraperitoneal administration of 60% lethal dose (66 mg/kg); assay type: functional
[11] = molecular target: T4, Muscarinic acetylcholine receptor M2; assay: biochemical
[12] = tested on: Mus musculus; assay: Effect on brain acetylcholine concentration in mice after intraperitoneal administration of 80% lethal dose (80 mg/kg)(***: p <= 0.001); assay type: functional
[13] = molecular target: T2, Muscarinic acetylcholine receptor M2; assay: Binding affinity against rat muscarinic acetylcholine receptor M2 using heart tissue and [3H]N-methylscopolamine
[14] = molecular target: T4, Muscarinic acetylcholine receptor M2; assay: biochemical; remark: listed apart in the source
[15] = tested on: Mus musculus; assay: Effect on brain acetylcholine concentration in mice after intraperitoneal administration of 60% lethal dose (102 mg/kg); assay type: functional
[16] = tested on: Mus musculus; assay: Effect on brain acetylcholine concentration in mice after intraperitoneal administration of 40% lethal dose (68 mg/kg); assay type: functional
[17] = molecular target: T1, Muscarinic acetylcholine receptor M1; assay: biochemical; remark: listed apart in the source
Description: Binding affinity against mouse muscarinic acetylcholine receptor M1 using cerebral cortex and [3H]pirenzepine

[18] = tested on: Mus musculus; assay: Effect on brain acetylcholine concentration in mice after intraperitoneal administration of 80% lethal dose (140 mg/kg); assay type: functional
[19] = species on record: Rattus norvegicus; assay: Concentration required to potentiate the contraction of isolated rat ileum produced by 1 x 10 e -7 M Ach by 20 %; inactive; assay type: functional
[20] = molecular target: T1, Muscarinic acetylcholine receptor M1; assay: biochemical; remark: listed apart in the source
Description: Binding affinity against mouse Muscarinic acetylcholine receptor M1 using cerebral cortex and [3H]pirenzepine

[21] = molecular target: T3, Acetylcholinesterase; assay: In vitro acetyl cholinesterase (AChE-I) inhibitory activity to determine its ability to reverse the cholinergic deficit characteristic of AD
[22] = tested on: Mus musculus; assay: Effect on brain acetylcholine concentration in mice after intraperitoneal administration of 80% lethal dose (170 mg/kg); assay type: functional
[23] = tested on: Mus musculus; assay: Effect on brain acetylcholine concentration in mice after intraperitoneal administration of 40% lethal dose (68 mg/kg; assay type: functional

Compound | IC50 [1] [nM] | IC50 [2] [nM] | Ratio [3] | IC50 [4] [nM] | IC50 [5] [nM] | Ratio [6] | Ileal activity [7] [µM] | also measured
CC(C)=NNc1cc(NCCSCc2ccc(CN(C)C)o2)c([N+](=O)[O-])cc1[N+](=O)[O-] | 3100 | 8400 | 1.1 | 3500 | 440 | 19 | <0.1 | 
C[N+](C)(C)CCOC(N)=O [CARBACHOL] |  |  |  |  |  |  |  | Ki [8]: 66000 nM; Ki [9]: 8 nM
CNC(=O)Oc1ccc2c(c1)[C@]1(C)CCN(C)[C@@H]1N2C [PHYSOSTIGMINE] |  |  |  | 160000 |  |  | <0.005 | 
CN(C)Cc1ccc(CSCCNc2cc(N)c([N+](=O)[O-])cc2[N+](=O)[O-])o1 | 3800 | 2400 | 1.8 |  | 83 | 28 | <0.1 | % of control [10]: 126.8%; Ki [11]: 460 nM; % of control [12]: 153.2%; IC50 [13]: 6800 nM; Ki [14]: 9500 nM
CN(C)Cc1ccc(CSCCNc2cc(F)c([N+](=O)[O-])cc2[N+](=O)[O-])o1 | 1800 | 3800 | 3.9 | 7000 | 120 | 33 | <0.01 | 
CN(C)Cc1ccc(CSCCNc2cc(Nc3ccc(F)cc3)c([N+](=O)[O-])cc2[N+](=O)[O-])o1 | 2100 | 1100 | 2.1 | 4400 | 680 | 1.6 | <0.01 | 
CN(C)Cc1ccc(CSCCNc2cc(Nc3ncccc3[N+](=O)[O-])c([N+](=O)[O-])cc2[N+](=O)[O-])o1 |  | 18000 |  |  | 650 |  |  | 
O=C1CCCN1CC#CCN1CCCC1 [OXOTREMORINE] |  |  |  |  |  |  |  | Ki [11]: 1.7 nM; Ki [14]: 1500 nM
CCCCCNc1cc(NCCSCc2ccc(CN(C)C)o2)c([N+](=O)[O-])cc1[N+](=O)[O-] |  |  |  |  | 1200 |  |  | 
CN(C)Cc1ccc(CSCCNc2ccc([N+](=O)[O-])cc2[N+](=O)[O-])o1 |  | 1800 | 4.1 | 5700 | 200 | 9.2 | <0.02 | % of control [15]: 120.4%; % of control [16]: 110.8%; IC50 [17]: 1400 nM; Ki [11]: 870 nM; % of control [18]: 128.4%; Ki [14]: 12000 nM
CNc1cc(NCCSCc2ccc(CN(C)C)o2)c([N+](=O)[O-])cc1[N+](=O)[O-] | 430 | 3300 | 7.2 |  | 160 | 21 |  | Ileal activity [19]: inactive; IC50 [13]: 3100 nM
CN(C)Cc1ccc(CSCCNc2ccc(F)cc2[N+](=O)[O-])o1 | 4000 | 3300 | 0.6 | 2400 | 650 | 5.1 |  | Ileal activity [19]: inactive
CN(C)Cc1ccc(CSCCNc2nnccc2[N+](=O)[O-])o1 |  |  |  |  |  |  | <0.1 | IC50 [20]: 970 nM; IC50 [21]: 470 nM
CN(C)CCNc1cc(NCCSCc2ccc(CN(C)C)o2)c([N+](=O)[O-])cc1[N+](=O)[O-] | 670 | 1400 | 0.57 | 380 | 520 | 2.8 | <0.01 | 
CN(C)Cc1ccc(CSCCNc2cc(Oc3ccc([N+](=O)[O-])cc3)c([N+](=O)[O-])cc2[N+](=O)[O-])o1 |  | 1100 |  |  | 270 |  |  | 
CN(C)Cc1ccc(CSCCNc2cc(NCc3ccccc3)c([N+](=O)[O-])cc2[N+](=O)[O-])o1 | 2000 |  | 1.7 | 3300 |  |  |  | Ileal activity [19]: inactive
CN(C)Cc1ccc(CSCCNc2cc(NCc3ccccn3)c([N+](=O)[O-])cc2[N+](=O)[O-])o1 | 1500 | 5200 | 1.6 | 2400 | 1300 | 4.1 | <1 | 
CN(C)Cc1ccc(CSCCNc2cc(Nc3ccccc3C#N)c([N+](=O)[O-])cc2[N+](=O)[O-])o1 | 3300 | 1800 | 1.1 | 3700 | 630 | 2.8 |  | Ileal activity [19]: inactive
CN(C)Cc1ccc(CSCCNc2cc(Nc3ccccc3)c([N+](=O)[O-])cc2[N+](=O)[O-])o1 | 6400 | 1600 | 1 | 6400 | 640 | 2.5 |  | Ileal activity [19]: inactive
CCCNc1cc(NCCSCc2ccc(CN(C)C)o2)c([N+](=O)[O-])cc1[N+](=O)[O-] | 3200 | 3800 | 1.1 |  | 260 | 15 | <1 | IC50 [13]: 3500 nM
CN(C)Cc1ccc(CSCCNc2cc(NN)c([N+](=O)[O-])cc2[N+](=O)[O-])o1 | 3800 | 5100 | 1.2 | 4700 | 76 | 67 | <0.1 | % of control [22]: 126.8%; % of control [15]: 128.8%; Ki [11]: 1100 nM; Ki [14]: 12000 nM; % of control [23]: 110%
CN(C)Cc1ccc(CSCCNc2cccc(F)c2C#N)o1 |  |  |  |  |  |  |  | IC50 [21]: 2100 nM
CN(C)Cc1ccc(CSCCNc2cc(NCCCN3CCOCC3)c([N+](=O)[O-])cc2[N+](=O)[O-])o1 | 530 | 4700 | 0.57 | 300 | 370 | 13 | <0.1 | 
CN(C)Cc1ccc(CSCCNc2cc(NCc3cccnc3)c([N+](=O)[O-])cc2[N+](=O)[O-])o1 | 380 | 6100 | 1.1 | 400 | 310 | 19 |  | Ileal activity [19]: inactive
